“Also recorded” adds a separate entry of the source.

Experiment [1] concerns the target T1, annexin V (Homo sapiens, UniProt P08758).
T1 sequence (P08758 1-320): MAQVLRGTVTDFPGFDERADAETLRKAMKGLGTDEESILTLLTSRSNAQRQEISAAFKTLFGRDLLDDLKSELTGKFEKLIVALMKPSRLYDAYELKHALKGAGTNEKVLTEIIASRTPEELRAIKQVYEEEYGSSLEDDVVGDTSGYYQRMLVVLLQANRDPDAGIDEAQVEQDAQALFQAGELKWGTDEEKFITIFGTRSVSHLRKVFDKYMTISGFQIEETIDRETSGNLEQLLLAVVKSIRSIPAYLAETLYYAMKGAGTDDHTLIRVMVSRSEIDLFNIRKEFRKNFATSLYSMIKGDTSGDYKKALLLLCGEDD
The following applies: liposomes; cited from earlier work.

A further experiment deals with T2, annexin I (Homo sapiens, UniProt P04083).
T2 sequence (P04083 1-346): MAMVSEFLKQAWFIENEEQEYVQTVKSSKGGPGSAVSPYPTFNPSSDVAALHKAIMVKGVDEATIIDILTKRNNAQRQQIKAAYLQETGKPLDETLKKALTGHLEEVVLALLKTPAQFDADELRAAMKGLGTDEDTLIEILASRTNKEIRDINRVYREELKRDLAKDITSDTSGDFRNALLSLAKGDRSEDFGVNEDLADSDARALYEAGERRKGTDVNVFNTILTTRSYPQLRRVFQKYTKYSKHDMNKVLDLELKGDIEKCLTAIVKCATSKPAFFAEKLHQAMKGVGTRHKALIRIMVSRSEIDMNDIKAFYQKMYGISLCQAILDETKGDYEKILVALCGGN
The following applies: liposomes; cited from earlier work.

The next experiment addresses T3, annexin III (Homo sapiens, UniProt P12429).
T3 sequence (P12429 1-323): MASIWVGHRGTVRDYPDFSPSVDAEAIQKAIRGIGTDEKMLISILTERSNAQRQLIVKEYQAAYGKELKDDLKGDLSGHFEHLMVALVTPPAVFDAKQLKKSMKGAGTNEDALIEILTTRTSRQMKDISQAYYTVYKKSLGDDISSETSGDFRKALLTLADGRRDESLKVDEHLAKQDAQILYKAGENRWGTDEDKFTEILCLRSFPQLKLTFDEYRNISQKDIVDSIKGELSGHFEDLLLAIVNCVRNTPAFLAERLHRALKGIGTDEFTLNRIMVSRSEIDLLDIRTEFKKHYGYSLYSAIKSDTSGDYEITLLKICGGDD
The conditions noted are these: liposomes; cited from earlier work.

The next experiment has as its system embryonic avian tibias. The experiment in a line: LPS-induced cartilage degradation in tibia organ cultures. The experiment is classed as cell-based, Chick. The method, then:
The purpose of this study was to test the ability of calcium channel blocker BDA to inhibit cartilage degradation in embryonic avian tibias maintained in organ culture in the presence of lipopolysaccharide (LPS). Chick tibiotarsi were removed from 12 day embryos and their tarsal regions removed. These bones were maintained in organ culture as previously described (26-28). Four bones were placed in each well of a 24-well plate and cultured in 1 ml of DMEM supplemented with 50 μg/ml ascorbate and 10 μg/ml LPS (E. coli serotype 0111 :B4, catalog #L-3012, Sigma, St. Louis). The culture medium with fresh supplements was changed every other day. BDA was dissolved in DMSO at a stock concentration of 2 mM. BDA was added to the culture medium on all feeding days and tested at two concentrations, 0.5 and 2 μM. Control cultures received an equivalent concentration of DMSO. The loss of cartilage from the embryonic bones was measured as the release of proteoglycans and collagen (hydroxyproline) into the culture medium. The spent culture medium was collected with each medium change. The proteoglycan content of the culture medium was determined by a dimethyl methylene blue dye-binding assay (25). The hydroxyproline was measured by a colorimetric assay in 96 well plates (29).

Another experiment has as its system OP-1. As to the kind of experiment: endogenous OP-1 in IL-1β challenged cartilage explants (western blot). The format is cell-based, human. As for the experimental part: Full thickness articular cartilage was dissected from load bearing regions of the femoral condyles of donors with no history of joint disease within 24 hours of death. Samples from men and women (age 50 to 76) were obtained from the Regional Organ Bank of Illinois as described above. After opening the joint, the surface of the cartilage was examined grossly. The appearance of each joint was given a grade based on the Collins scale (30) as modified by Muehleman et al (31).
Tissue explants (3×3 mm) were prepared as described above and were cultured in Dulbecco's modified Eagle's medium/Hams' F12 (1/1) containing 10 ml/L of Insulin Transferrin Selenium A (ITS, Gibco), 25 μg/ml ascorbate, and 50 μg/ml gentamicin. Experimental cultures contained either recombinant human IL-1β (Genzyme), BDA compound in DMSO, or a combination of IL-1β and BDA. ITS containing medium was used to reduce or eliminate serum-contained growth factors that could mask the released OP-1 or OP-1 degradation products and create nonspecific binding of the antibodies. To reach a steady state, cartilage explants were cultured in the absence of IL-1β or BDA for 4 days (or 96 hours) followed by two days (or 48 hours) of culture with IL-1β, BDA or both IL-1β and BDA. DMSO was added to the media control groups to account for a possible effect of DMSO.
Articular cartilage explants were briefly washed with 0.9% saline, homogenized and extracted in 1 M guanidine hydrochloride in the presence of proteinase inhibitors (0.1 M ε-aminocaproic acid, 0.05 M sodium acetate, 0.005 M EDTA, 0.005 M benzamidine chloride, 0.01 M N-ethylmaleimide, 0.0005 M phenymethanesulfonyl fluoride) at pH 7.4. Samples were extracted for 3 h in the refrigerator, and the extracts, together with the media, were dialyzed against water for 48 hours at 2-8° C., lyophilized and solubilized in sample buffer (0.01 M Tris HCl, pH 6.5, 1% sodium dodecyl sulfate (SDS), 10% glycerol, 0.016% bromphenol blue, 8 M urea, 0.2 M sodium chloride with (for the reduced conditions) or without (for non-reduced conditions) dithioerythritol added (DTT), pH 6.8). Cartilage extracts and media were analyzed by western blotting. All samples were normalized to the protein concentration. Protein concentrations was determined by a colorimetric assay, using BSA as a standard (Pierce, Rockford, Ill.).
Aliquots of samples (30 μg of protein per lane) were analyzed by electrophoresis and immunoblotting. Samples were loaded onto a 12% SDS-polyacrylamide gel (PAGE) in a buffer containing 0.2 M glycine, 25 mM Tris and 3.5 mM SDS. Proteins were transferred from SDS-PAGE gels onto nitrocellulose transfer membranes overnight at 20 V, 4-8° C. in a buffer containing 12 mM Tris (pH 7.4), 6 mM Na acetate, and 0.3 mM EDTA at pH 7.4. Immunoblot analyses was done using OP-1 antibodies. […]
(In general: In western blotting, separated proteins are transferred to a membrane and probed.)

For experiment [2], the target named is T1, annexin V. As to the kind of experiment: calcium ion flux assay in artificial vesicles containing annexin V (Calcium Green fluorescence). The format is biochemical. The conditions noted are these: 180 ug/ml Annexin V, 100 ug/ml CII Peptide where present, 2 hours. The method, then: Artifical vesicles containing annexin were prepared according to methods known in the art. Specifically, vesicles were prepared by drying down lipids (Avanti Polar Lipids) with nitrogen overlay. Lipids were washed once in ether and further dried under vacuum overnight. Lipids were then sonicated on ice in NMDG Buffer (150 mM N Methyl D Glucamine, and 10 mM Hepes, adjusted to ph 7.4 with HCl, then diluted to 100 mOSM with water) containing 300μM Calcium Green dye (Molecular Probes). Extravesicular dye was removed by Biobead extraction for 20 minutes.
Vesicles were diluted 1:100 in NMDG Buffer, mixed with Annexin V with or without collagen fragments (CII peptide), and incubated for 2 hours. Ca^++ fluxes were measured according to Kaneko et al.. Fluorescence was measured in a 96 well plate using the Flipr plate reader.

Take `CN1C(=O)CN=C(c2ccccc2)c2ccccc21` [BDA 250, 1,3-dihydro-1-methyl-5-phenyl-2H-1,4-benzodiazepine-2-one]: on annexin V [1], the “calcium fluxes induced by annexin V” value is on record as “no effect”. The “calcium fluxes induced by annexin I” value at annexin I is “inhibited”. Moreover, at annexin III, the “calcium fluxes induced by annexin III” value was “inhibited”.

For `CN1C(=O)C(NC(=O)C(N)Cc2c[nH]c3ccccc23)C=C(c2ccccc2)c2ccccc21` (centres unmarked) [BDA], the “LPS induced proteoglycan release to the culture medium” value in the experiment with embryonic avian tibias (0.5 μM, compared to DMSO carrier control) is reported as “intermediate loss; also recorded: intermediate amount”; in the experiment on embryonic avian tibias (2 μM), “least release”; with embryonic avian tibias (0.5 and 2 μM, dose dependence), “dose-dependent inhibition”. Besides, the “LPS induced collagen (hydroxyproline) release” value is on record as “intermediate degree of collagen release” with embryonic avian tibias (0.5 μM, feeding day 15); “least collagen loss” with embryonic avian tibias (2 μM, feeding day 15); “dose-dependent inhibition” in the experiment on embryonic avian tibias (0.5 and 2 μM, dose dependence). Moreover, in the experiment on embryonic avian tibias (0.5 and 2 μM, dose dependence), the “LPS induced cartilage loss (release of hydroxyproline or proteoglycan)” value is given as “dose-dependent inhibition”. Further, the “size of the bone and cartilage at the end of the experiments” value in the experiment with embryonic avian tibias (LPS cultures) is “increased size of the bone and cartilage”. The “release of pro-OP-1 domain” value with OP-1 (culture media) is “enhanced the release of pro-OP-1 domain”. Moreover, the “release of pro-OP-1 into culture media” value with OP-1 (day 2 of culture) is “dramatic release of pro-OP-1”. Moreover, in the experiment with OP-1 (human cartilage explants, IL-1 culture, 48 hours), the “content of endogenous OP-1 in cartilage” value was “increase in the content of endogenous OP-1; also recorded: increase in the content of endogenous anabolic factor”. Also, the “processing of endogenous OP-1 from pro- into mature form” value in the experiment with OP-1 (human cartilage under catabolic conditions) is recorded as “processing of cartilage endogenous OP-1 from pro- into mature form”.

Regarding “Annexin V: calcium and phospholipid binding protein mixed with vesicles”, the “Fluorescence (Calcium Signal)” value was determined as 29023 in the experiment with annexin V [2] (Lipid Ratio 65% PS/12.5% PC/12.5% PE/5% Chol) and 46454 in the experiment with annexin V [2] (Lipid Ratio 70% PS/12.5% PC/12.5% PE).

These data come from patent US6649366B2, “Methods and compositions related to modulators of annexin and cartilage homeostasis” (SmithKline Beecham Corporation, priority 1999, dated 2003).
